The values below come from patent US11530196B2, “Pyrimidine compound acting on EGFR and ERBB2” (CHINA RESOURCES PHARMACEUTICAL HOLDINGS COMPANY LIMITED, priority 2019, dated 2022).

The structures appear in SMILES notation. pIC50: −log10 of the molar value. Values joined by “and” are separate entries in the source; they are usually repeats but may differ in a detail not shown here. Equal values may be shown once.

The subject of series [1] is LU0387 EGFR-H773_V774insNPH cells. Nature of the series: Anti-proliferation activity test of LU-0387 cells. The format is cell-based. The following applies: Homo sapiens, 96 h, CTG, 4 days, read-out: Cell IC50 (anti-proliferation). The protocol:
(1) Anti-Proliferation Activity Test of LU-0387 (EGFR Exon 20 NPH Insertion Mutation) Cells
Fetal bovine serum FBS, CellTiter Glo® luminescent cell activity assay, 96-well clear flat-bottomed black-walled plate
A cell counter was used for cell counting, and cell viability was detected to ensure that the viability of each cell line was above 90%. Cell suspension was added to a 96-well plate to bring the cell density to the specified concentration and incubated overnight at 37° C., 5% CO2 and 95% humidity. The culture medium was added to the T0 plate, the CTG reagent was melted and the cell plate was equilibrated at room temperature. CTG solution was added to each well. The cell plate was vibrated to lyse the cells and the cold light values were read. The compound to be test and the control drug were diluted in a gradient to obtain a 10-fold solution. 10 μL of drug solution was added to each well of a 96-well plate that had been inoculated with cells. The incubation was continued at 37° C., 5% CO2, 95% humidity for 4 days, and CTG analysis was performed and cold light values were read separately. The data were analyzed using GraphPad Prism 5.0 software and IC50 values were calculated.
The IC50 data of the compounds of the present disclosure against EGFR exon 20 insertion mutation NPH in LU-0387 cells are shown in Table 4.

A short description of series [2]: Compound stability test in plasma (monkey). The class given is in vitro ADME, cynomolgus monkey. How it is done: (§1) In this study, mouse, SD rat, Beagle, cynomolgus monkey and human plasma were used as materials to investigate the stability of the tested compounds in the plasma of the above five species. Propantheline, Enalapril, Bisacodyl and Procaine were used as control compounds.
(§2) The experimental conditions for the test compounds were as follows: • test concentration: 2 μM (DMSO ≤0.5%); • incubation times: 0, 10, 30, 60 and 120 minutes; • frozen plasma (from multiple species) was used in the test system; • incubation conditions: 37° C.
(§3) The mixed frozen plasma was thawed in a 37° C. water bath prior to the experiment. Plasma was centrifuged at 4000 rpm for 5 minutes and cleared if there was a clot. The pH will be adjusted to 7.4±0.1 if required.
(§4) The intermediate solution of 1 mM compound and positive control was prepared by diluting 10 mM stock solution with 90 μL of dimethyl sulfoxide. 100 μM solution was prepared by diluting 20 μL of intermediate solution (1 mM) with 180 μL of 45% methanol/water.
(§5) 2 μL of 100 μM solution was added to 98 μL of blank plasma to achieve a final concentration of 2 μM (in duplicate) of the sample, and the sample was incubated in a 37° C. water bath. At each time point (0, 10, 30, 60 and 120 min), 400 μL of termination solution (200 ng/mL toluenesulfonylurea and 200 ng/mL labetalol, 50% ACN/MeOH) was added to precipitate the proteins and mixed thoroughly. […]

For series [3], the target named is Ba/F3 EGFR-D770_N771insSVD (Homo sapiens, UniProt P00533, DUP768-770, cells depend on it). Nature of the series: Anti-proliferation against Ba/F3 exon 20 insertion mutant cells (SVD). The class given is cell-based, mouse. The settings on record: CTG, 72 hours, read-out: Mutant cells IC50 (anti-proliferation). From the text:
RPMI1640 medium was purchased from Hyclone, FBS fetal bovine serum was purchased from GBICO, and trypsin-EDTA were both purchased from Giboco. DPBS was purchased from Corning, penicillin/streptomycin solution was purchased from Hyclone, and Cell-Titer Glo reagent was purchased from Promega (Cat. No. G7572). Ba/F3 EGFR-D770_N771insSVD, Ba/F3 EGFR-H773_V774insNPH, Ba/F3 EGFR-V769_D770insASV, BaF3 ERBB2 A775_G776 ins YVMA, the cell lines were constructed by Beijing Kang Yuan Bochuang Biotechnology Co., Ltd. Plate reading instrument: Envision (PerkinElmer).
Cells in logarithmic growth phase were harvested and cell counts were performed using a […]. Cell viability was detected by the Taipan Blue rejection assay. The cell concentration was adjusted; the cell suspension was added to a 96-well plate separately. Cells in 96-well plates were incubated overnight at 37° C., 5% CO2, and 95% humidity. To prepare the drug solution, 10 μL of drug solution was added to each well of the 96-well plate inoculated with cells, and three replicate wells were set up for each drug concentration. The cells in the 96-well plates added with drugs were placed at 37° C., 5% CO2, 95% humidity and continued to incubate for 72 hours, after which CTG analysis was performed and the cells were vibrated on an orbital shaker to lyse the cells. The cell plate was placed at room temperature to stabilize the cold light signal, and the cold light values were read. The data were analyzed using GraphPad Prism 7.0 software, and a nonlinear S-curve regression was used to fit the data to derive the dose-effect curve from which the IC50 values were calculated.
The IC50 of anti-proliferation activity against Ba/F3 Exon20 insertion mutant cells of the compounds of the present disclosure is shown in Table 5.
Ba/F3 exon 20 insertion mutant cells are cell lines with SVD, NPH, ASV, and YVMA insertion mutations artificially constructed using mouse B cells, and it can be seen from Table 5 that the compounds of the present disclosure have better cellular anti-proliferation activity against the […] exon 20 insertion mutations such as SVD, NPH, ASV, and YVMA, and also show better anti-proliferation activity against common exon 20 insertion mutations such as SVD mutation.

The nature of series [4]: Compound stability test in plasma (mouse). The format is in vitro ADME. How it is done: as §1, §2, §3, §4, §5
Setting [5] is: pH 7.4, 37° C., read-out: In vitro plasma half-life T1/2.

Sequence of Ba/F3 EGFR-D770_N771insSVD (P00533 with tags, fused parts or gaps DUP768-770): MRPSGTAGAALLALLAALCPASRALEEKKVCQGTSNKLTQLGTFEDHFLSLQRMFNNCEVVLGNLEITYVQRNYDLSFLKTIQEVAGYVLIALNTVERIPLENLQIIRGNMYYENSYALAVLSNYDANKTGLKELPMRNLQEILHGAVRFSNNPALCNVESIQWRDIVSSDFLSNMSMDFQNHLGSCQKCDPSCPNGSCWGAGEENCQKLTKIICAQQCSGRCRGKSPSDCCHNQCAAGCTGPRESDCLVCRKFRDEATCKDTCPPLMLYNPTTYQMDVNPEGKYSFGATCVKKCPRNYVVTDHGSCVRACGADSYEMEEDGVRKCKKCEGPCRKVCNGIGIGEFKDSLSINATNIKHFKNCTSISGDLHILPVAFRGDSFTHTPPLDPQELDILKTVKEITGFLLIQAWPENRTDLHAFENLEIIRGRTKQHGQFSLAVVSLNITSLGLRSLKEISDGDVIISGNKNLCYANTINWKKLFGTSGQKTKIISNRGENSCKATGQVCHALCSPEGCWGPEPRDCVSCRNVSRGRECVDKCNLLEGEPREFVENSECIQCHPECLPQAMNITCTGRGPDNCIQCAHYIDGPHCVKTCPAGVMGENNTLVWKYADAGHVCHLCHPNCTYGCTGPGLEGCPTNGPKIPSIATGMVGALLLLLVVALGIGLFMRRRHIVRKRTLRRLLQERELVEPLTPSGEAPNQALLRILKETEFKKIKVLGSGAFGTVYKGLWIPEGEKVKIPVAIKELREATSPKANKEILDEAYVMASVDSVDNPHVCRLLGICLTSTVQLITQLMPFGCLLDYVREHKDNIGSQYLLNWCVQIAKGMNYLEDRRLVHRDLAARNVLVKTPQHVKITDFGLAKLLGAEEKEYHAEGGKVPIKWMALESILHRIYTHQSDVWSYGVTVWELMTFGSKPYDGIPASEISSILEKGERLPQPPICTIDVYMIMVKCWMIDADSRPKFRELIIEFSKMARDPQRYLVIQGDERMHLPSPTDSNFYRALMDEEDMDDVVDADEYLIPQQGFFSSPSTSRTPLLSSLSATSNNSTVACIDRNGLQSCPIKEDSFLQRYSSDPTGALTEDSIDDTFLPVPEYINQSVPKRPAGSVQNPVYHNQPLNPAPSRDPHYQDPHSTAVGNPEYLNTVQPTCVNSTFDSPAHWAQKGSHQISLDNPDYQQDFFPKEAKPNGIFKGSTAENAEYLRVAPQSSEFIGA

In the case of `C=CC(=O)Nc1cc(Nc2ncc(C(=O)OC(C)C)c(-c3cn(OC)c4ccccc34)n2)c(OC)cc1N(C)CCN(C)C.CS(=O)(=O)O` [Compound 1], the pIC50 in series [1] is 7.59. Also, the “In vitro plasma stability (Residual percentage)” value in series [2] (120 minutes, 2 μM, 37° C.) was 93.7%; in series [4] (120 minutes, 2 μM, 37° C.) it was 45%. In addition, the results for the half-life at 2 µM in series [2] (setting [5]) and in series [4] (setting [5]) were greater than 4.82 h and 1.81 h, respectively. For the same molecule, the GI50 in series [3] is 0.027 µM and 0.024 µM.
